Test [1] addresses T1, mu opioid receptor (MOR) (Homo sapiens, UniProt P35372). The test is described as follows: PathHunter β-arrestin recruitment assay, PAM mode with EC20 endomorphin-1. The conditions noted are these: for allosteric activity for β-arrestin recruitment: EC20 endomorphin-1 concentration of 4.5 nM; for β-arr Max. Resp.: maximal response for β-arrestin recruitment; for EC50: β-arrestin recruitment, read-out: β-arr. EC50; for inhibition of β-arrestin recruitment at a static concentration of 5 μM: printed in β-arr. EC50 column. It counts as cell-based. On the procedure:
The effects of MOR PAMs and MOR SAMs on receptor activity were assayed using the PathHunter enzyme complementation assay technology (DiscoveRx, CA). A description of the technology employed is as follows.
Beta-Arrestin Pathway: The PathHunter β-arrestin assay monitors the activation of a GPCR in a homogenous, non-imaging assay format using a technology developed by DiscoveRx called Enzyme Fragment Complementation (EFC) with beta-galactosidase (β-Gal) as the functional reporter. […] EA is fused to β-Arrestin and ED is fused to the GPCR of interest. When the GPCR is activated and β-arrestin is recruited to the receptor, ED and EA complementation occurs, restoring β-gal activity, which is measured using chemiluminescent PathHunter Detection Reagents.
In this manner an EC50 for each test compound, and percent maximal response for each test compound, were determined for both the β-arrestin and cAMP pathways. Though the pharmacological effects of a given signal bias can be hypothesized (Raehal et al. (2011) Pharmacol. Rev. 63:1001-1019), it is not possible to know with certainty which bias ratio will be most advantageous in a clinical setting. […] Kenakin 2015a, supra. The information associated with the compounds detailed herein is the first large data set available for the prediction of ligand bias for an MOR PAM.
In general terms: Recruitment of arrestin is a read-out of receptor activation apart from second messengers.

Test [2] addresses T1, mu opioid receptor (MOR). In words: Hit Hunter cAMP signaling assay (adenylyl cyclase inhibition), PAM mode with EC20 endomorphin-1. Conditions: for cAMP Max. Resp.: maximal response for adenylyl cyclase inhibition. The format is cell-based.
The mark [3] stands for this setting: cAMP EC50, adenylyl cyclase inhibition.
The mark [4] stands for this setting: read-out: cAMP EC50, adenylyl cyclase inhibition.

Molecules are shown by their SMILES.

The source of these data is patent publication US11071731B2, “Allosteric modulators of the mu opioid receptor” (Chiromics, LLC, priority 2017, dated 2021).

Usually EC50 stands for the concentration that produces a half-maximal response.

T1 sequence (P35372 whole entry): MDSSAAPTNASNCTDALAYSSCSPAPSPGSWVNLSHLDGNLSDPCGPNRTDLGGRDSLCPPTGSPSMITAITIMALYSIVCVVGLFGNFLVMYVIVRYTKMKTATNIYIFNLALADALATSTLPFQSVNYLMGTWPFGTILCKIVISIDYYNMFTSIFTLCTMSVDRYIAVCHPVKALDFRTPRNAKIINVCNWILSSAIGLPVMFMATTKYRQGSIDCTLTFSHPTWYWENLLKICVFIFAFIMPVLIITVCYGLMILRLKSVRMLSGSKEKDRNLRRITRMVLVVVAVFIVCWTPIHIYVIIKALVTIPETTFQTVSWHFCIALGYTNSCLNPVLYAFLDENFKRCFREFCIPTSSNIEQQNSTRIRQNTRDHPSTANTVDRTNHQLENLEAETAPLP

For the compound `Fc1cc(C2C3CCC(C3)N2Cc2cc(Cl)ccc2F)cc(C(F)(F)F)c1` (stereo not drawn) [compound 216], on mu opioid receptor (MOR) [1], the “allosteric activity for β-arrestin recruitment” value is “high positive allosteric activity”, the “β-arr Max. Resp.” value was “F (F represents a maximal response of > 60%)” and the EC50 was less than 0.7 µM. The “allosteric activity for β-arrestin recruitment” value on mu opioid receptor (MOR) [1] (listed as Compound No. 216) is “high allosteric modulatory capability”. The “allosteric activity for cAMP signaling” value at mu opioid receptor (MOR) [2] (EC20 endomorphin-1 concentration of 0.45 nM) was “silent allosteric activity”. The EC50 at mu opioid receptor (MOR) [2] (setting [3]) is more than 2.1 µM. For the same compound, the “cAMP Max. Resp.” value on mu opioid receptor (MOR) [2] is “D (D represents a maximal response of < 40%)”. Consider `CN(C)c1ncc(F)c(N2CCCCC2c2cccc(F)n2)n1` (stereo not drawn) [compound 242], for which, at mu opioid receptor (MOR) [1], the “β-arr Max. Resp.” value is on record as “D (D represents a maximal response of < 40%)” and the EC50 is more than 2.1 µM. The compound also had an EC50 at mu opioid receptor (MOR) [2] (setting [3]) of more than 2.1 µM. For the same compound, on mu opioid receptor (MOR) [2], the “cAMP Max. Resp.” value is on record as “D (D represents a maximal response of < 40%)”.

With `COc1cnc(C2CCCCN2c2nc(Cl)ncc2F)nc1Cl` (stereo not drawn) [compound 379], at mu opioid receptor (MOR) [1], the “β-arr Max. Resp.” value is “D (D represents a maximal response of < 40%)” and the EC50 is less than 0.7 µM. Further, the EC50 on mu opioid receptor (MOR) [2] (setting [3]) is less than 0.7 µM. Besides, at mu opioid receptor (MOR) [2], the “cAMP Max. Resp.” value is recorded as “D (D represents a maximal response of < 40%)”. For the compound `[2H]C1(c2ccc(F)c(Br)c2)C(F)CCCN1S(=O)(=O)c1ccc(OC)cc1` (stereo not drawn) [Compound 39], on mu opioid receptor (MOR) [1], the “inhibition of β-arrestin recruitment at a static concentration of 5 μM” value (from here on “inhibition of β-arrestin recruitment”) is on record as “G (G represents < 50% inhibition of β-arrestin recruitment at a static concentration of 5 μM, for compounds that were not tested for adenylyl cyclase inhibition)”. `COc1ccc(C2N(S(=O)(=O)c3ccc(Cl)cc3)CCC2(F)F)cc1Br` (stereo not drawn) [Compound 113]: at mu opioid receptor (MOR) [1], the “β-arr Max. Resp.” value is listed as “F (F represents a maximal response of > 60%)” and the EC50 was more than 2.1 µM. The like results for `COc1ccc(C2C(F)CCN2S(=O)(=O)c2ccc(Cl)cc2)cc1Br` (stereo not drawn) [Compound 115] were, in that order, “E (E represents a maximal response of 40-60%)” and more than 2.1 µM. For `[2H]C1(c2ccc(F)c(Br)c2)C(F)CCCN1S(=O)(=O)Cc1ccccc1Cl` (stereo not drawn) [Compound 36], the “inhibition of β-arrestin recruitment” value on mu opioid receptor (MOR) [1] is “G (G represents < 50% inhibition of β-arrestin recruitment at a static concentration of 5 μM, for compounds that were not tested for adenylyl cyclase inhibition)”.

`COc1ccc(C2CCN2S(=O)(=O)c2ccc(Cl)cc2)cc1Br` (stereo not drawn) [compound 40]: at mu opioid receptor (MOR) [1], the “β-arr Max. Resp.” value is listed as “D (D represents a maximal response of < 40%)” and the EC50 is more than 2.1 µM. On the same counts, the results for `COc1ccc(C2C(C(F)(F)F)CCN2S(=O)(=O)c2ccc(Cl)cc2)cc1Br` (single isomer, unassigned) [Compound 117] are “F (F represents a maximal response of > 60%)” and more than 2.1 µM. Turning to `[2H]C1(c2ccc(F)c(Br)c2)C(F)CCCN1S(=O)(=O)Cc1ccc(Cl)c(Cl)c1` (stereo not drawn) [Compound 34], the “inhibition of β-arrestin recruitment” value against mu opioid receptor (MOR) [1] is on record as “G (G represents < 50% inhibition of β-arrestin recruitment at a static concentration of 5 μM, for compounds that were not tested for adenylyl cyclase inhibition)”. `Cc1cccc(C2CCCCN2S(=O)(=O)c2ccc(Cl)cc2)n1` (stereo not drawn) [compound 46]: the “inhibition of β-arrestin recruitment” value on mu opioid receptor (MOR) [1] was “G (G represents < 50% inhibition of β-arrestin recruitment at a static concentration of 5 μM, for compounds that were not tested for adenylyl cyclase inhibition)”. `COc1ccc(C2N(S(=O)(=O)c3ccc(Cl)cc3)CCC2(F)F)cc1Br` (single isomer, unassigned) [Compound 116]: at mu opioid receptor (MOR) [1], the “β-arr Max. Resp.” value is given as “F (F represents a maximal response of > 60%)” and the EC50 was more than 2.1 µM. On to `COc1ccc(C2CC(F)CN2S(=O)(=O)c2ccc(Cl)cc2)cc1Br` (single isomer, unassigned) [Compound 112], for which the “inhibition of β-arrestin recruitment” value on mu opioid receptor (MOR) [1] was “G (G represents < 50% inhibition of β-arrestin recruitment at a static concentration of 5 μM, for compounds that were not tested for adenylyl cyclase inhibition)”. As for `COc1ccc(C2CC(F)CN2S(=O)(=O)c2ccc(Cl)cc2)cc1Br` (single isomer, unassigned) [Compound 114], at mu opioid receptor (MOR) [1], the “β-arr Max. Resp.” value is “D (D represents a maximal response of < 40%)” and the EC50 is more than 2.1 µM.

Turning to `[2H]C1(c2ccc(F)c(Br)c2)C(F)CCCN1S(=O)(=O)c1ccccc1` (stereo not drawn) [Compound 30], the “inhibition of β-arrestin recruitment” value against mu opioid receptor (MOR) [1] is “G (G represents < 50% inhibition of β-arrestin recruitment at a static concentration of 5 μM, for compounds that were not tested for adenylyl cyclase inhibition)”. Consider `O=S(=O)(c1ccccc1)N1CCCCC1c1cccc(C(F)(F)F)c1` (stereo not drawn) [Compound 19], for which, at mu opioid receptor (MOR) [1], the “inhibition of β-arrestin recruitment” value is “G (G represents < 50% inhibition of β-arrestin recruitment at a static concentration of 5 μM, for compounds that were not tested for adenylyl cyclase inhibition)”.

`N#Cc1cccc(C2CCCCN2S(=O)(=O)c2ccc(Cl)cc2)n1` (stereo not drawn) [compound 47]: the “inhibition of β-arrestin recruitment” value on mu opioid receptor (MOR) [1] is “G (G represents < 50% inhibition of β-arrestin recruitment at a static concentration of 5 μM, for compounds that were not tested for adenylyl cyclase inhibition)”. For the compound `[2H]C1(c2ccc(F)c(Br)c2)C(F)CCCN1S(=O)(=O)Cc1ccccc1` (stereo not drawn) [Compound 35], at mu opioid receptor (MOR) [1], the “inhibition of β-arrestin recruitment” value is “G (G represents < 50% inhibition of β-arrestin recruitment at a static concentration of 5 μM, for compounds that were not tested for adenylyl cyclase inhibition)”. For the compound `COc1ccc(C2CC(C(F)(F)F)CN2S(=O)(=O)c2ccc(Cl)cc2)cc1Br` (single isomer, unassigned) [Compound 111], at mu opioid receptor (MOR) [1], the “β-arr Max. Resp.” value is “F (F represents a maximal response of > 60%)” and the EC50 was more than 2.1 µM. On to `O=S(=O)(c1ccc(Cl)cc1)N1CCCCC1c1ccccn1` (stereo not drawn) [compound 45], for which, on mu opioid receptor (MOR) [1], the “inhibition of β-arrestin recruitment” value was “G (G represents < 50% inhibition of β-arrestin recruitment at a static concentration of 5 μM, for compounds that were not tested for adenylyl cyclase inhibition)”.

For `[2H]C1(c2ccc(F)c(Br)c2)C(F)CCCN1S(=O)(=O)c1ccc2ccccc2c1` (stereo not drawn) [Compound 31], the “inhibition of β-arrestin recruitment” value at mu opioid receptor (MOR) [1] is “G (G represents < 50% inhibition of β-arrestin recruitment at a static concentration of 5 μM, for compounds that were not tested for adenylyl cyclase inhibition)”. As to `O=S(=O)(c1ccc2ccccc2c1)N1CCCCC1c1cccc(C(F)(F)F)c1` (stereo not drawn) [Compound 20], the “inhibition of β-arrestin recruitment” value against mu opioid receptor (MOR) [1] was “G (G represents < 50% inhibition of β-arrestin recruitment at a static concentration of 5 μM, for compounds that were not tested for adenylyl cyclase inhibition)”. Still for that read-out and setting: for `FC(F)(F)c1cccc(C2CCCCN2Cc2ccc(Cl)cc2)c1` (stereo not drawn) [compound 140] the value was “G (G represents < 50% inhibition of β-arrestin recruitment at a static concentration of 5 μM, for compounds that were not tested for adenylyl cyclase inhibition)”.

Consider `Fc1cnc(Cl)nc1N1CCCC(F)C1c1cccc(C(F)(F)F)c1` (single isomer, unassigned) [compound 209], for which, on mu opioid receptor (MOR) [2] (setting [4]), the EC50 was in the range of 0.7 to 2.1 µM. With `COc1ccc(C2CCCN2S(=O)(=O)c2ccc(Cl)cc2)cc1Br` (stereo not drawn) [compound 41], on mu opioid receptor (MOR) [1], the “β-arr Max. Resp.” value is “F (F represents a maximal response of > 60%)” and the EC50 was more than 2.1 µM. Consider `Fc1cnc(Cl)nc1N1CCCC(F)C1c1cccc(C(F)(F)F)c1` (single isomer, unassigned) [compound 208], for which the EC50 at mu opioid receptor (MOR) [2] (setting [4]) was in the range of 0.7 to 2.1 µM.

As to `COc1ccc(C2CCCCN2S(=O)(=O)c2ccc(Cl)cc2)cc1Br` (racemic) [compound 4], on mu opioid receptor (MOR) [1], the “β-arr Max. Resp.” value is given as “F (F represents a maximal response of > 60%)” and the EC50 is more than 2.1 µM.
